Measurements from US6391305B1, “Conjugates useful in the treatment of prostate cancer” (priority 1999, dated 2002).
Marks after values point to notes of the source that are not given here. Non-standard residues stand in square brackets, D forms with d. Residues, ends and D or L forms follow the SMILES beside them. *: point of attachment. Doxorubicin(3'-N) = COc1cccc2c1C(=O)c1c(O)c3c(c(O)c1C2=O)C[C@@](O)(C(=O)CO)C[C@@H]3O[C@H]1C[C@H](N*)[C@H](O)[C@H](C)O1; Dox = doxorubicin, linked through its 3'-amine to the C-terminal carbonyl; Decanoyl(3,6,9-trioxa) = COCCOCCOCC(=O)*; Glyceroyl(2S) = O=C([C@@H](O)CO)*; Glyceroyl(2R) = O=C([C@H](O)CO)*; hArg = N=C(N)NCCCC[C@H](N)C(=O)O; Chg = N[C@H](C(=O)O)C1CCCCC1; hSer = N[C@@H](CCO)C(=O)O; Nle = CCCC[C@H](N)C(=O)O; Glycolyl = O=C(CO)*; X3 = O=C(C(O)CO)*

Legend:
DuPRO cells = experiment: In vitro cytotoxicity, Alamar Blue assay, DuPRO; type: cell-based; conditions: value in parentheses beside the LNCaP value, read-out: DuPRO cell kill EC 50
Description: (§1) The cytotoxicities of the cleaveable oligopeptide-doxorubicin conjugates, prepared as described in Examples 3-6, against a line of cells which is known to be killed by unmodified doxorubicin was assessed with an Alamar Blue assay. Specifically, cell cultures of LNCap prostate tumor cells or DuPRO cells in 96 well plates was diluted with medium containing various concentrations of a given conjugate (final plate well volume of 200 μl ). The cells were incubated for 3 days at 37° C., 20 μl of Alamar Blue is added to the assay well. The cells were further incubated and the assay plates were read on a EL-310 ELISA reader at the dual wavelengths of 570 and 600 nm at 4 and 7 hours after addition of Alamar Blue. Relative percentage viability at the various concentration of conjugate tested was then calculated versus control (no conjugate) cultures. If no salt is indicated, the free conjugate was tested.

[1] = biological target: T1, enzymatically active free PSA (Homo sapiens, UniProt P07288); experiment: Recognition (cleavage) of oligopeptide-doxorubicin conjugates by free PSA, HPLC; type: biochemical; conditions: DOX conjugate; for Time to 50% Substrate Cleavage by York PSA: PSA digestion buffer pH7.4, 140 mM NaCl, molar ratio to PSA 100 to 1
T1 construct: required for 50% cleavage of the noted oligopeptides with enzymatically active free PSA
Description: If no salt is indicated for the conjugate, the free conjugate was tested.

[2] = tested on: LNCap prostate tumor cells; experiment: In vitro cytotoxicity, Alamar Blue assay, LNCaP; type: cell-based; conditions: 72 HRS, read-out: LNCaP Cell Kill in 72 HRS, {48 HRS} EC 50
Description: as §1

T1 sequence (P07288 25-261): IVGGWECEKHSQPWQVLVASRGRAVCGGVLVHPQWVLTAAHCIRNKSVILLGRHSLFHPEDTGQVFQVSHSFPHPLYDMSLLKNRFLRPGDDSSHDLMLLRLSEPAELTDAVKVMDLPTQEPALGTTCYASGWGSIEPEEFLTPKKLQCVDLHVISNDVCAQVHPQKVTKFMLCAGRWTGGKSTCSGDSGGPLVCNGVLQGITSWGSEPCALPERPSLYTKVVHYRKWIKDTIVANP

Compound | EC50 (DuPRO cells) [µM] | Time to 50% Substrate Cleavage by York PSA [1] [min] | EC50 [2] [µM] | Substrate cleavage by York PSA at 3 HOUR ([1]; 3 hours) [%] | Time to 50% Substrate Cleavage by York PSA (Min), value marked * ([1]; alternative PSA digestion buffer pH8.0, 25 mM NaCl, 0.5 mM CaCl2)
COc1cccc2c1C(=O)c1c(O)c3c(c(O)c1C2=O)C[C@@](O)(C(=O)CO)C[C@@H]3O[C@H]1C[C@H](NC(=O)[C@H](CC(C)C)NC(=O)[C@H](CO)NC(=O)[C@H](CCC(N)=O)NC(=O)[C@@H](NC(=O)[C@H](CO)NC(=O)[C@H](CO)NC(=O)CO)C2CCCCC2)[C@H](O)[C@H](C)O1 [2-hydroxyacetyl-SSChgQ-SL-DOX (3′)] (Glycolyl-SS[Chg]QSL-{Doxorubicin(3'-N)}) | > 100 | 45 | 4.8 |  | 
COc1cccc2c1C(=O)c1c(O)c3c(c(O)c1C2=O)C[C@@](O)(C(=O)CO)C[C@@H]3O[C@H]1C[C@H](NC(=O)[C@H](CC(C)C)NC(=O)[C@H](CO)NC(=O)[C@H](CCC(N)=O)NC(=O)[C@@H](NC(=O)[C@H](CO)NC(=O)[C@H](CO)NC(=O)[C@H](CCCCNC(=N)N)NC(=O)[C@@H](O)CO)C2CCCCC2)[C@H](O)[C@H](C)O1 [(l)(2,3-dihydroxypropionyl)hArgSerSerChgGlnSerLeu-DOX (3′)] ({Glyceroyl(2S)}-[hArg]SS[Chg]QSL-{Doxorubicin(3'-N)}) | > 100 | 12 | 7.5 |  | 
COc1cccc2c1C(=O)c1c(O)c3c(c(O)c1C2=O)C[C@@](O)(C(=O)CO)C[C@@H]3O[C@H]1C[C@H](NC(=O)[C@@H](CC(C)C)NC(=O)[C@H](CO)NC(=O)[C@H](CCC(N)=O)NC(=O)[C@@H](NC(=O)[C@H](CO)NC(=O)[C@H](CO)NC(=O)[C@@H](O)CO)C2CCCCC2)[C@H](O)[C@H](C)O1 [(l)(2,3-dihydroxypropionyl)SerSerChgGln-Ser(dLeu)-DOX (3′)] ({Glyceroyl(2S)}-SS[Chg]QS[dL]-{Doxorubicin(3'-N)}) | > 100 |  | > 100 | 22 | 
CCCC[C@H](NC(=O)[C@H](CO)NC(=O)[C@H](CCC(N)=O)NC(=O)[C@H](Cc1ccc(O)cc1)NC(=O)[C@H](CO)NC(=O)[C@H](CO)NC(=O)[C@H](CCCCNC(=N)N)NC(=O)CO)C(=O)N[C@H]1C[C@H](O[C@H]2C[C@](O)(C(=O)CO)Cc3c(O)c4c(c(O)c32)C(=O)c2c(OC)cccc2C4=O)O[C@@H](C)[C@H]1O [2-hydroxyacetyl-HomoRSSYQ-SNle-DOX (3′), 2-hydroxyacetyl-hArgSerSerTyrGln-SerNle-DOX (3′)] (Glycolyl-[hArg]SSYQS[Nle]-{Doxorubicin(3'-N)}) | > 100 |  | 3.6 |  | 60* Min
COc1cccc2c1C(=O)c1c(O)c3c(c(O)c1C2=O)C[C@@](O)(C(=O)CO)C[C@@H]3O[C@H]1C[C@H](NC(=O)[C@H](CC(C)C)NC(=O)[C@H](CO)NC(=O)[C@H](CCC(N)=O)NC(=O)[C@@H](NC(=O)[C@H](CCCCNC(=N)N)NC(=O)[C@H](CO)NC(=O)[C@H](O)CO)C2CCCCC2)[C@H](O)[C@H](C)O1 [(d) 2,3-dihydroxypropionyl-SerhArgChgGln-SerLeu-DOX (3′)] ({Glyceroyl(2R)}-S[hArg][Chg]QSL-{Doxorubicin(3'-N)}) | > 100 | 65 | 5.8 |  | 
COCCOCCOCC(=O)N[C@@H](CO)C(=O)N[C@@H](CCCCNC(=N)N)C(=O)N[C@H](C(=O)N[C@@H](CCC(N)=O)C(=O)N[C@@H](CO)C(=O)N[C@@H](CC(C)C)C(=O)N[C@H]1C[C@H](O[C@H]2C[C@](O)(C(=O)CO)Cc3c(O)c4c(c(O)c32)C(=O)c2c(OC)cccc2C4=O)O[C@@H](C)[C@H]1O)C1CCCCC1 [PEG(2)-SHomoRChgQ-SL-DOX (3′), PEG(2)-SerhArgChgGln-SerLeu-DOX (3′)] ({Decanoyl(3,6,9-trioxa)}-S[hArg][Chg]QSL-{Doxorubicin(3'-N)}) | > 100 | 25 | 8.1 |  | 
COc1cccc2c1C(=O)c1c(O)c3c(c(O)c1C2=O)C[C@@](O)(C(=O)CO)C[C@@H]3O[C@H]1C[C@H](NC(=O)[C@H](CC(C)C)NC(=O)[C@H](CO)NC(=O)[C@H](CCC(N)=O)NC(=O)[C@@H](NC(=O)[C@H](CCCCNC(=N)N)NC(=O)[C@H](CO)NC(=O)[C@@H](O)CO)C2CCCCC2)[C@H](O)[C@H](C)O1 [(l) 2,3-dihydroxypropionyl-SerhArgChgGln-SerLeu-DOX (3′)] ({Glyceroyl(2S)}-S[hArg][Chg]QSL-{Doxorubicin(3'-N)}) | > 100 | 15 | 9.4 |  | 
N-[2-{2-(2-methoxyethoxy)ethoxy}acetyl]-Ser-Ser-Ser-Chg-Gln-Ser-Leu-Dox ({Decanoyl(3,6,9-trioxa)}-SSS[Chg]QSL-Dox) [PEG(2)-SSSChgQ-SL-DOX (3′)] | > 100 | 60 | 10 |  | 
COc1cccc2c1C(=O)c1c(O)c3c(c(O)c1C2=O)C[C@@](O)(C(=O)CO)C[C@@H]3O[C@H]1C[C@H](NC(=O)[C@H](CC(C)C)NC(=O)[C@H](CO)NC(=O)[C@H](CCC(N)=O)NC(=O)[C@@H](NC(=O)[C@H](CO)NC(=O)[C@H](CO)NC(=O)[C@H](CO)NC(=O)[C@@H](O)CO)C2CCCCC2)[C@H](O)[C@H](C)O1 [N-2(S)-2,3-dihydroxypropionyl-Ser-Ser-Ser-Chg-Gln-Ser-Leu-Dox] ({Glyceroyl(2S)}-SSS[Chg]QSL-{Doxorubicin(3'-N)}) | > 100 | 25 | 5.5 |  | 
COCCOCCOCC(=O)N[C@@H](CO)C(=O)N[C@@H](CO)C(=O)N[C@H](C(=O)N[C@@H](CCC(N)=O)C(=O)N[C@@H](CO)C(=O)N[C@@H](CC(C)C)C(=O)N[C@H]1C[C@H](O[C@H]2C[C@](O)(C(=O)CO)Cc3c(O)c4c(c(O)c32)C(=O)c2c(OC)cccc2C4=O)O[C@@H](C)[C@H]1O)C1CCCCC1 [PEG(2)SSChgQ-SL-DOX (3′), PEG(2)SerSerChgGln-SerLeu-DOX (3′)] ({Decanoyl(3,6,9-trioxa)}-SS[Chg]QSL-{Doxorubicin(3'-N)}) | > 100 | 90 | 8.8 |  | 
COc1cccc2c1C(=O)c1c(O)c3c(c(O)c1C2=O)C[C@@](O)(C(=O)CO)C[C@@H]3O[C@H]1C[C@H](NC(=O)[C@H](CC(C)C)NC(=O)[C@H](CO)NC(=O)[C@H](CCC(N)=O)NC(=O)[C@@H](NC(=O)[C@H](CO)NC(=O)[C@H](CO)NC(=O)[C@@H](O)CO)C2CCCCC2)[C@H](O)[C@H](C)O1 [(l)(2,3-dihydroxypropionyl)-SerSerChgGln-SerLeu-DOX (3′)] ({Glyceroyl(2S)}-SS[Chg]QSL-{Doxorubicin(3'-N)}) | > 100 | 25 | 13 |  | 
COc1cccc2c1C(=O)c1c(O)c3c(c(O)c1C2=O)C[C@@](O)(C(=O)CO)C[C@@H]3O[C@H]1C[C@H](NC(=O)[C@H](CC(C)C)NC(=O)[C@H](CO)NC(=O)[C@H](CCC(N)=O)NC(=O)[C@@H](NC(=O)[C@H](CO)NC(=O)[C@H](CO)NC(=O)[C@H](CCO)NC(=O)C(O)CO)C2CCCCC2)[C@H](O)[C@H](C)O1 (stereo partly drawn) [(2,3-dihydroxypropionyl)-hSerSerSerChgGln-SerLeu-DOX (3′)] (X3-[hSer]SS[Chg]QSL-{Doxorubicin(3'-N)}) | 90 | 35 | 5.1 |  | 
